Results from US8445492B2, “Method for inhibiting growth of cancer cells and cell telomere and diseases of cell proliferation by using heteroannelated anthraquinone derivative compounds” (National Defense Medical Center, priority 2008, dated 2013).
Read-outs that look alike come from different tables or passages of the source.

How the values were obtained:
HOP-62 [1] = assay: in vitro test at 1.0×10^−5 M, Non-small cell lung cancer cell; assay type: cell-based; conditions: 1.0×10^−5 molal concentration (M)
HCC-2998 = assay: in vitro test at 1.0×10^−5 M, Colorectal cancer cell; assay type: cell-based; conditions: 1.0×10^−5 molal concentration (M)
HS 578T = assay: in vitro test at 1.0×10^−5 M, Breast cancer cell; assay type: cell-based; conditions: 1.0×10^−5 molal concentration (M)
LOX IMV1 = assay: in vitro test at 1.0×10^−5 M, Skin cancer cell; assay type: cell-based; conditions: 1.0×10^−5 molal concentration (M)
[2] = tested on: different cancer cell lines; assay: in vitro test at 1.0×10^−5 M, summary over the cell lines; assay type: cell-based; parameters: unit not given here; conditions: 1.0×10^−5 molal concentration (M)
CCRF-CEM [3] = tested on: CCRF-CEM
HL-60(TB) [4] = tested on: HL-60(TB)
K-562 [5] = tested on: K-562
RPMI-8226 [6] = tested on: RPMI-8226
A549/ATCC [7] = tested on: A549/ATCC
EKVX [8] = tested on: EKVX
HOP-62 [9] = tested on: HOP-62
HOP-92 [10] = tested on: HOP-92
NCI-H522 [11] = tested on: NCI-H522
CCRF-CEM [12] = assay: cells; conditions: Homo sapiens
HL-60(TB) [13] = assay: cells; conditions: Homo sapiens, HL-60
K-562 [14] = assay: cells; conditions: Homo sapiens, K562
PC-3 [15] = tested on: PC-3
DU-145 [16] = tested on: DU-145
RPMI-8226 [17] = assay: cells; conditions: Homo sapiens, RPMI-8226
A549/ATCC [18] = assay: cells; conditions: Homo sapiens, A549
EKVX [19] = assay: cells; conditions: Homo sapiens
HOP-62 [20] = assay: cells; conditions: Homo sapiens, HOP-62
HOP-92 [21] = assay: cells; conditions: Homo sapiens, HOP-92
NCI-H522 [22] = assay: cells; conditions: Homo sapiens, NCI-H522
PC-3 [23] = assay: cells; conditions: Homo sapiens, PC-3
DU-145 [24] = assay: cells; conditions: Homo sapiens, DU-145

SMILES: CCc1nc2ccc3c(c2[nH]1)C(=O)c1ccccc1C3=O [No. 4, 2-Ethyl-1(3)H-anthra[1,2-d]imidazole-6,11-dione]
- inhibition effect on cancer cell line (Table 2 value) (HOP-62 [1]): 97.73
- inhibition effect on cancer cell line (Table 2 value) (HCC-2998): 67.67
- inhibition effect on cancer cell line (Table 2 value) (HS 578T): −18.58
- inhibition effect on cancer cell line (Table 2 value) (LOX IMV1): 39.98
- Mean [2]: 58.42
- TGI (CCRF-CEM [3]; CCRF-CEM): >1.00E−4
- Percent Growth (CCRF-CEM [3]; Log10 Concentration −4.0): 15%
- Percent Growth (CCRF-CEM [3]; Log10 Concentration −5.0): 51%
- Percent Growth (CCRF-CEM [3]; Log10 Concentration −6.0): 95%
- Percent Growth (CCRF-CEM [3]; Log10 Concentration −7.0): 94%
- Percent Growth (CCRF-CEM [3]; Log10 Concentration −8.0): 103%
- TGI (HL-60(TB) [4]; HL-60(TB)): >1.00E−4
- Percent Growth (HL-60(TB) [4]; Log10 Concentration −4.0): 19%
- Percent Growth (HL-60(TB) [4]; Log10 Concentration −5.0): 43%
- Percent Growth (HL-60(TB) [4]; Log10 Concentration −6.0): 101%
- Percent Growth (HL-60(TB) [4]; Log10 Concentration −7.0): 100%
- Percent Growth (HL-60(TB) [4]; Log10 Concentration −8.0): 100%
- TGI (K-562 [5]; K-562): >1.00E−4
- Percent Growth (K-562 [5]; Log10 Concentration −4.0): 48%
- Percent Growth (K-562 [5]; Log10 Concentration −5.0): 63%
- Percent Growth (K-562 [5]; Log10 Concentration −6.0): 87%
- Percent Growth (K-562 [5]; Log10 Concentration −7.0): 92%
- Percent Growth (K-562 [5]; Log10 Concentration −8.0): 94%
- Percent Growth (MOLT-4; Log10 Concentration −4.0): −1%
- Percent Growth (MOLT-4; Log10 Concentration −5.0): 49%
- Percent Growth (MOLT-4; Log10 Concentration −6.0): 93%
- Percent Growth (MOLT-4; Log10 Concentration −7.0): 96%
- Percent Growth (MOLT-4; Log10 Concentration −8.0): 98%
- TGI (MOLT-4; MOLT-4): 9.51E−5
- Percent Growth (RPMI-8226 [6]; Log10 Concentration −4.0): −12%
- Percent Growth (RPMI-8226 [6]; Log10 Concentration −5.0): 12%
- Percent Growth (RPMI-8226 [6]; Log10 Concentration −6.0): 73%
- Percent Growth (RPMI-8226 [6]; Log10 Concentration −7.0): 81%
- Percent Growth (RPMI-8226 [6]; Log10 Concentration −8.0): 97%
- TGI (RPMI-8226 [6]; RPMI-8226): 3.21E−5
- TGI (A549/ATCC [7]; A549/ATCC): >1.00E−4
- Percent Growth (A549/ATCC [7]; Log10 Concentration −4.0): 17%
- Percent Growth (A549/ATCC [7]; Log10 Concentration −5.0): 60%
- Percent Growth (A549/ATCC [7]; Log10 Concentration −6.0): 97%
- Percent Growth (A549/ATCC [7]; Log10 Concentration −7.0): 100%
- Percent Growth (A549/ATCC [7]; Log10 Concentration −8.0): 91%
- TGI (EKVX [8]; EKVX): 9.43E−5
- Percent Growth (EKVX [8]; Log10 Concentration −5.0): 15%
- Percent Growth (EKVX [8]; Log10 Concentration −6.0): 59%
- Percent Growth (EKVX [8]; Log10 Concentration −7.0): 82%
- Percent Growth (EKVX [8]; Log10 Concentration −8.0): 88%
- TGI (HOP-62 [9]; HOP-62): >1.00E−4
- Percent Growth (HOP-62 [9]; Log10 Concentration −4.0): 38%
- Percent Growth (HOP-62 [9]; Log10 Concentration −5.0): 72%
- Percent Growth (HOP-62 [9]; Log10 Concentration −6.0): 87%
- Percent Growth (HOP-62 [9]; Log10 Concentration −7.0): 94%
- Percent Growth (HOP-62 [9]; Log10 Concentration −8.0): 90%
- TGI (HOP-92 [10]; HOP-92): >1.00E−4
- Percent Growth (HOP-92 [10]; Log10 Concentration −4.0): 23%
- Percent Growth (HOP-92 [10]; Log10 Concentration −5.0): 48%
- Percent Growth (HOP-92 [10]; Log10 Concentration −6.0): 64%
- Percent Growth (HOP-92 [10]; Log10 Concentration −7.0): 80%
- Percent Growth (HOP-92 [10]; Log10 Concentration −8.0): 93%
- Percent Growth (NCI-H226; Log10 Concentration −4.0): 22%
- Percent Growth (NCI-H226; Log10 Concentration −5.0): 63%
- Percent Growth (NCI-H226; Log10 Concentration −6.0): 85%
- Percent Growth (NCI-H226; Log10 Concentration −7.0): 89%
- Percent Growth (NCI-H226; Log10 Concentration −8.0): 85%
- TGI (NCI-H226; NCI-H226): >1.00E−4
- Percent Growth (NCI-H460; Log10 Concentration −4.0): 2%
- Percent Growth (NCI-H460; Log10 Concentration −5.0): 25%
- Percent Growth (NCI-H460; Log10 Concentration −6.0): 74%
- Percent Growth (NCI-H460; Log10 Concentration −7.0): 82%
- Percent Growth (NCI-H460; Log10 Concentration −8.0): 84%
- TGI (NCI-H460; NCI-H460): >1.00E−4
- Percent Growth (NCI-H522 [11]; Log10 Concentration −4.0): 32%
- Percent Growth (NCI-H522 [11]; Log10 Concentration −5.0): 54%
- Percent Growth (NCI-H522 [11]; Log10 Concentration −6.0): 87%
- Percent Growth (NCI-H522 [11]; Log10 Concentration −7.0): 88%
- Percent Growth (NCI-H522 [11]; Log10 Concentration −8.0): 89%
- TGI (NCI-H522 [11]; NCI-H522): >1.00E−4
- GI50 (CCRF-CEM [12]): 10.9 µM
- GI50 (HL-60(TB) [13]): 7.53 µM
- GI50 (K-562 [14]): 78.3 µM
- Percent Growth (PC-3 [15]; Log10 Concentration −4.0): 29%
- Percent Growth (PC-3 [15]; Log10 Concentration −5.0): 54%
- Percent Growth (PC-3 [15]; Log10 Concentration −6.0): 93%
- Percent Growth (PC-3 [15]; Log10 Concentration −7.0): 100%
- Percent Growth (PC-3 [15]; Log10 Concentration −8.0): 96%
- TGI (PC-3 [15]; PC-3): >1.00E−4
- TGI (DU-145 [16]; DU-145): >1.00E−4
- Percent Growth (DU-145 [16]; Log10 Concentration −4.0): 24%
- Percent Growth (DU-145 [16]; Log10 Concentration −5.0): 37%
- Percent Growth (DU-145 [16]; Log10 Concentration −6.0): 88%
- Percent Growth (DU-145 [16]; Log10 Concentration −7.0): 98%
- Percent Growth (DU-145 [16]; Log10 Concentration −8.0): 98%
- GI50 (RPMI-8226 [17]): 2.42 µM
- GI50 (A549/ATCC [18]): 17.1 µM
- GI50 (EKVX [19]): 1.6 µM
- GI50 (HOP-62 [20]): 44.2 µM
- GI50 (HOP-92 [21]): 7.38 µM
- GI50 (NCI-H522 [22]): 15.4 µM
- GI50 (PC-3 [23]): 14.4 µM
- GI50 (DU-145 [24]): 5.62 µM
